According to patent US20070276049A1 (priority 2003, published 2007):
Where two headings read alike, the source gives them in different places.

Tests used:
rabbit RBCs [1] = test system: rabbit RBCs
[2] = test system: Streptococcus pyogenes T18P; format: cell-based, S. pyogenes; settings: GML 10 and 20 ug/ml
rabbit RBCs [3] = format: cell-based
HIV-1 = format: cell-based
rabbit RBCs [4] = test: Streptolysin O-induced hemolysis on RBC-containing agar plates; format: cell-based; settings: GML 10 μg/ml in agar; Group A Streptococci stabbed into agar
Experimental: GML (10 μg/ml) was incorporated into culture plates containing solid agar and rabbit RBCs suspended in the agar. The effect of GML on. streptolysin O-induced hemolysis was tested by stabbing the Group A Streptococci into the agar so as to permit the anaerobic growth of the bacteria beneath the surface of the agar and thereby allow streptolysin O to function.

human RBCs = format: cell-based

In the case of `CCCCCCCCCCCC(=O)OCC(O)CO` (stereo not drawn) [GML, glycerol monolaurate], the “RBC lysis by GML alone” value (rabbit RBCs [1]) is reported as “did not cause RBC lysis”, the “lysis of rabbit RBCs by the B. anthracis exotoxin” value (rabbit RBCs [1]; GML 5 μg/ml) is reported as “partially inhibited” and the “lysis of rabbit RBCs by the B. anthracis exotoxin” value (rabbit RBCs [1]; GML 10 μg/ml) is reported as “almost completely inhibited”. For the same compound, the “number of bacteria in the epithelial cells” value [2] was “dramatic decreases”, the “lysis of RBCs by hemolysin” value (rabbit RBCs [3]) was “completely prevented” and the “cells expressing p24” value (HIV-1) was “rare and no”. The “total number of cells in the samples” value (HIV-1) was “significantly less”, the “streptolysin O-induced hemolysis of RBCs” value (rabbit RBCs [4]) was “completely prevented” and the “lysis of human RBCs by the B. anthracis exotoxin” value (human RBCs; GML 1 μg/ml) was “partially inhibited”. For the same compound, the “lysis of human RBCs by the B. anthracis exotoxin” value (human RBCs; GML 10 μg/ml) was “completely inhibited”.

α-hemolysin was tested, and the “Absorbance at 410 nm” value (rabbit RBCs [3]) was 0.97 and the “lysis of RBCs” value (rabbit RBCs [3]) was “complete cell lysis”.
